Source: patent US7381521B2, “Anti-pathogenic composition useful in blood preservation” (Altachem Pharma Ltd., priority 2001, dated 2008)

Experiments:
[1] = test system: Candida albicans ATCC 1031; test: Test 2 (DGHM), growth inhibition by dilutions, 72 hours at 37° C.; format: cell-based
Experimental: (§1) Another test was carried out a basis of the following solutions • 100 ml of a 0.1% solution of chlorohexidine digluconate (pH 6); and • 100 ml of a 0.1% solution of Bardac22®.
(§2) The activity of these solutions, alone or in combination, was more particularly tested in respect of Staphylococcus aureus ATCC 6538, Escherichia coli ATCC 11229 and Candida albicans ATCC 10231.
(§3) The tests were conducted in accordance with the procedure described in Chapter I/2.1 and 2.2 of Tichtlinien für die Prüfung und Bewertung chemischer Desinfektionsverfahren der DGHM/Guidelines for Testing and Evaluating Chemical Disinfection Processes of DGHM as at 1.1, 1981.
(§4) Tables IX, X and XI respectively illustrate the bactericidal and fungicidal activity of a 0.1% aqueous solution of chlorohexidine digluconate, a 0.1% aqueous solution of Bardac22® and a mixture of equal parts of both compounds. The procedures of which these Tables illustrate the results comprise incubation of 72 hours at 37° C. and the use of the following inactivating substances as controls: • A: 3% Tween®80+0.3% lecithin+0.1% cysteine • B: 3% Tween®80+3% saponin+0.1% cysteine+0.1% histidine; • C: 3% Tween®80+0.3% lecithin+0.1% histidine+0.5% sodium thiosulphate.
(§5) In these Tables, the sign “+” indicates an increase and the sign “−” denotes the absence of growth.

E. coli ATCC 11229 = test: as above; format: cell-based, Escherichia coli
Experimental: as §1, §2, §3, §4, §5

human fibroblastic cells = test: Cytotoxicity check of the products on human fibroblastic cells; format: cell-based
Experimental: Cytotoxicity checks are conducted on the products for cellular cultures used in the tests, that is to say the human fibroblastic cells.
The cells are cultivated on a Dulbecco medium enriched with 10% fetal calf serum; at the moment of their use, the cells are washed and the same culture medium is used but without calf serum.
For each product tested or each composition, 10 tubes of cellular culture were used and after inoculation of the product, the tubes were kept under observation for 3 days.
Each product was, in succession, used pure and at dilutions of 10^−1, 10^−2, 10^−3 and added to culture tubes containing 1 ml of nutrient medium in a volume of 0.1 ml.

S. aureus ATCC 6538 = test: Test 2 (DGHM), growth inhibition by dilutions, 72 hours at 37° C.; format: cell-based, Staphylococcus aureus
Experimental: as §1, §2, §3, §4, §5

spermatozoids = test: Spermicidal action, vitality by eosine-nigrosine, 100 spermatozoids examined; format: cell-based, human (healthy volunteers); parameters: key: living (colourless) cells counted among 100 spermatozoids examined; settings: Chlorohexidine digluconate solution 0.5%
Experimental: The various samples of sperm (one drop of sperm per sample) are obtained from healthy volunteers.
One drop of sperm is treated by eosine-nigrosine. A smear is then prepared and 100 spermatozoids examined with a microscope. The dead cells are coloured red, either totally or partially. The living cells are colourless.
The substances studied were Bardac® and chlorohexidine digluconate, tested alone and in association in accordance with the invention. The various stages of the procedure are set out in Tables XV to XVII.
The maximum contact time of the various substances and of the sperm was confined to 3 minutes in order to guarantee the effectiveness of the method under the conditions of use. The concentration of the active solutions in the sperm was limited to 10% in order to reduce the risks of toxicity of the products in respect of the mucosa.

[2] = 0.00625% vol/vol, inactivator A
[3] = 0.00625% vol/vol, inactivator B
[4] = 0.00625% vol/vol, inactivator C
[5] = 0.00625% vol/vol, no inactivator
[6] = 0.0125% vol/vol, no inactivator

[H]/N=C(\N/C(=N/[H])NCCCCCCNC(=N)NC(=N)Nc1ccc(Cl)cc1)Nc1ccc(Cl)cc1 [Chlorhexidine, chlorohexidine digluconate, reference compound]
−: growth ([1]; 1.0% vol/vol, no inactivator) | growth (E. coli ATCC 11229; 0.5% vol/vol, no inactivator) | growth (E. coli ATCC 11229; 1.0% vol/vol, no inactivator) | growth (S. aureus ATCC 6538; 0.5% vol/vol, no inactivator) | growth (S. aureus ATCC 6538; 1.0% vol/vol, no inactivator)
+: growth [1, 2] | growth [1, 3] | growth [1, 4] | growth [1, 5] | growth ([1]; 0.0125% vol/vol, inactivator A) | growth ([1]; 0.0125% vol/vol, inactivator B) | growth ([1]; 0.0125% vol/vol, inactivator C) | growth [1, 6] | growth ([1]; 0.025% vol/vol, inactivator A) | growth ([1]; 0.025% vol/vol, inactivator B) | growth ([1]; 0.025% vol/vol, inactivator C) | growth ([1]; 0.025% vol/vol, no inactivator) | growth ([1]; 0.05% vol/vol, inactivator A) | growth ([1]; 0.05% vol/vol, inactivator B) | growth ([1]; 0.05% vol/vol, inactivator C) | growth ([1]; 0.05% vol/vol, no inactivator) | growth ([1]; 0.1% vol/vol, inactivator A) | growth ([1]; 0.1% vol/vol, inactivator B) | growth ([1]; 0.1% vol/vol, inactivator C) | growth ([1]; 0.1% vol/vol, no inactivator) | growth ([1]; 0.5% vol/vol, inactivator A) | growth ([1]; 0.5% vol/vol, inactivator B) | growth ([1]; 0.5% vol/vol, inactivator C) | growth ([1]; 0.5% vol/vol, no inactivator) | growth ([1]; 1.0% vol/vol, inactivator A) | growth ([1]; 1.0% vol/vol, inactivator B) | growth ([1]; 1.0% vol/vol, inactivator C) | growth (E. coli ATCC 11229; [2]) | growth (E. coli ATCC 11229; [3]) | growth (E. coli ATCC 11229; [4]) | growth (E. coli ATCC 11229; [5]) | growth (E. coli ATCC 11229; 0.0125% vol/vol, inactivator A) | growth (E. coli ATCC 11229; 0.0125% vol/vol, inactivator B) | growth (E. coli ATCC 11229; 0.0125% vol/vol, inactivator C) | growth (E. coli ATCC 11229; [6]) | growth (E. coli ATCC 11229; 0.025% vol/vol, inactivator A) | growth (E. coli ATCC 11229; 0.025% vol/vol, inactivator B) | growth (E. coli ATCC 11229; 0.025% vol/vol, inactivator C) | growth (E. coli ATCC 11229; 0.025% vol/vol, no inactivator) | growth (E. coli ATCC 11229; 0.05% vol/vol, inactivator A) | growth (E. coli ATCC 11229; 0.05% vol/vol, inactivator B) | growth (E. coli ATCC 11229; 0.05% vol/vol, inactivator C) | growth (E. coli ATCC 11229; 0.05% vol/vol, no inactivator) | growth (E. coli ATCC 11229; 0.1% vol/vol, inactivator A) | growth (E. coli ATCC 11229; 0.1% vol/vol, inactivator B) | growth (E. coli ATCC 11229; 0.1% vol/vol, inactivator C) | growth (E. coli ATCC 11229; 0.1% vol/vol, no inactivator) | growth (E. coli ATCC 11229; 0.5% vol/vol, inactivator A) | growth (E. coli ATCC 11229; 0.5% vol/vol, inactivator B) | growth (E. coli ATCC 11229; 0.5% vol/vol, inactivator C) | growth (E. coli ATCC 11229; 1.0% vol/vol, inactivator A) | growth (E. coli ATCC 11229; 1.0% vol/vol, inactivator B) | growth (E. coli ATCC 11229; 1.0% vol/vol, inactivator C) | growth (S. aureus ATCC 6538; [2]) | growth (S. aureus ATCC 6538; [3]) | growth (S. aureus ATCC 6538; [4]) | growth (S. aureus ATCC 6538; [5]) | growth (S. aureus ATCC 6538; 0.0125% vol/vol, inactivator A) | growth (S. aureus ATCC 6538; 0.0125% vol/vol, inactivator B) | growth (S. aureus ATCC 6538; 0.0125% vol/vol, inactivator C) | growth (S. aureus ATCC 6538; [6]) | growth (S. aureus ATCC 6538; 0.025% vol/vol, inactivator A) | growth (S. aureus ATCC 6538; 0.025% vol/vol, inactivator B) | growth (S. aureus ATCC 6538; 0.025% vol/vol, inactivator C) | growth (S. aureus ATCC 6538; 0.025% vol/vol, no inactivator) | growth (S. aureus ATCC 6538; 0.05% vol/vol, inactivator A) | growth (S. aureus ATCC 6538; 0.05% vol/vol, inactivator B) | growth (S. aureus ATCC 6538; 0.05% vol/vol, inactivator C) | growth (S. aureus ATCC 6538; 0.05% vol/vol, no inactivator) | growth (S. aureus ATCC 6538; 0.1% vol/vol, inactivator A) | growth (S. aureus ATCC 6538; 0.1% vol/vol, inactivator B) | growth (S. aureus ATCC 6538; 0.1% vol/vol, inactivator C) | growth (S. aureus ATCC 6538; 0.1% vol/vol, no inactivator) | growth (S. aureus ATCC 6538; 0.5% vol/vol, inactivator A) | growth (S. aureus ATCC 6538; 0.5% vol/vol, inactivator B) | growth (S. aureus ATCC 6538; 0.5% vol/vol, inactivator C) | growth (S. aureus ATCC 6538; 1.0% vol/vol, inactivator A) | growth (S. aureus ATCC 6538; 1.0% vol/vol, inactivator B) | growth (S. aureus ATCC 6538; 1.0% vol/vol, inactivator C)
77.2 ± 5.6: vitality (living spermatozoids) (spermatozoids; contact 1 min, 10% in the sperm)
1%: dilution of the 0.1% solution inhibiting growth [1]
0.5%: dilution of the 0.1% solution inhibiting growth (E. coli ATCC 11229) | dilution of the 0.1% solution inhibiting growth (S. aureus ATCC 6538)
75.5 ± 4.8: vitality (living spermatozoids) (spermatozoids; contact 3 min, 10% in the sperm)
0.0005%: concentration of active substance inhibiting growth (E. coli ATCC 11229) | concentration of active substance inhibiting growth (S. aureus ATCC 6538)
78 ± 5.7: vitality (living spermatozoids) (spermatozoids; contact 3 min, 5% in the sperm)
77 ± 10.8: vitality (living spermatozoids) (spermatozoids; contact 1 min, 5% in the sperm)
0.001%: concentration of active substance inhibiting growth [1]
no toxicity: toxicity for the cell cultures (human fibroblastic cells)
